Measured values taken from patent US20230226218A1, “Red Cell Extracellular Vesicles (RCEVs) Containing Cargoes and Methods of Use and Production Thereof” (ERYTECH PHARMA, priority 2020, published 2023).

Key:
Type in all cases: cell-based, human
THP1 macrophages = assay: Cytokine release by THP1 macrophages (BioLegend bead kit, flow cytometry)
Protocol: In a second approach, the levels of IL-1b, IL-6, TNF-α, and IFN-β were measured after THP1 macrophages were incubated with varying concentrations of STINGa, STINGa-CLRCEVs, or proRBC EVs.
[…] Supernatants were collected at 6 h and 24 h after stimulation and frozen until quantification. Supernatants were analyzed by flow cytometry using the BioLegend kit with four (4) different beads recognizing IL-1b, IL-6, TNF-α, IFN-β.
It has been reported that vesicles from packed red blood cell (pRBC) units bind to monocytes and induce proinflammatory cytokines, boosting T-cell responses in vitro (Danesh et al 2013). To test whether CLRCEVs and/or RCEVs would likewise induce these cytokines, THP1 macrophages were grown and treated as before and the levels of IL-6, IL-1b, and TNF-α were measured.

THP1-derived macrophages = assay: pHrodo in vitro phagocytosis assay, THP1-derived macrophages; conditions: 25k EVs/cell, STINGa 0.14 μg/ml, 48 h, FIG. 18-19
Source text: To test the ability of the RCEVs and CLRCEVs to be taken up by immune cells, we developed an in vitro phagocytosis protocol based upon the THP1 monocyte cell line. Briefly, we determined THP1 cells could be effectively differentiated to become more macrophage-like by treating them with PMA for 3 days followed by 4 days of resting in culture media without PMA. Thereafter, we applied various test substances (e.g. EVs-STINGa, EVs-proRBC, free STINGa, each+/=a reporter dye) to either the undifferentiated or differentiated THP1 cells and observed the phagocytosis activity.
As shown schematically in FIG. 12, pHrodo®-labeled cells or vesicles (e.g. EVs) are added to phagocytic cells, but while they are outside of the cells, there is little to no fluorescence at the approximately pH 7.4 extracellular environment. When the relevant cellular receptors are engaged, a phagocytic cup forms around the labeled cells or vesicles. Finally, an acidic phagosome forms, causing the pHrodo® to emit fluorescence.
As an initial study, the THP1 cells were seeded as follows: 24,000, 34,000, and 44,000 cells/well. […] Labeled EVs-STINGa were added to differentiated THP1 cells and incubated for 12 h and the […] device was set to read the wells every 30 minutes. […] In these greyscale micrograms, the original red fluorescence appears black inside the cells. […]

STING = assay: THP1-Dual IRF-Lucia luciferase reporter assay (QUANTI-Luc); conditions: 0.5, 1.0, 1.5, 2.0 μg/mL STINGa; 100k cells/well; 24 h
Protocol: First, indirect measurements were made using the THP1-Dual™ cells (InvivoGen), which are derived from the human THP-1 monocyte cell line and contain a stably integrated inducible IRF-Lucia luciferase reporter construct that expresses luciferase when STING is activated (e.g. by STING agonists including CDN).
Briefly, 100k cells/well were seeded and then treated with different concentrations of free STING agonist (“STINGa”) (0.5, 1.0, 1.5, and 2.0 μg/mL), EVs-STINGa (also referred to as “ERY-STINGa-CLRCEV” or “STINGa-CLRCEV” throughout) (0.5, 1.0, 1.5, and 2.0 μg/mL, carried by the indicated amounts of EVs), and EVs-proRBC. After 24 h, the supernatants were recovered and subjected to QUANTI-Luc™ detection according to the manufacturer's instructions. […] If so, it is envisioned that the in vivo efficacy of EV-STINGa (or any EV-[immune modulator] for that matter) will depend upon the capacity of target cells for taking up the CLRCEVs. It is further envisioned that if the THP1-Dual monocytes had been differentiated into macrophages, the highest dose of EVs-STINGa would have elicited at least as much luciferase activity as the highest dose of free STINGa.

**Q.** Which IFN-β (THP1 macrophages; 3 μg/ml STINGa (EVs 7.6E10 EVs/mL), time not stated) does the source give for `Nc1ncnc2c1ncn2[C@@H]1O[C@@H]2COP(=O)([S-])O[C@@H]3[C@H](O)[C@@H](COP([O-])(=S)O[C@H]2[C@H]1O)O[C@H]3n1cnc2c(N)ncnc21.[Na+].[Na+]` (stereo partly drawn) [free STINGa, ADU-S100] here?
**A.** The IFN-β was 140 pg/mL.

**Q.** And the IFN-β (THP1 macrophages; 8 μg/mL STINGa (EVs 2.0E11 EVs/mL), 6 h)?
**A.** The IFN-β was 400 pg/mL.

**Q.** And the IFN-β (THP1 macrophages; 8 μg/mL STINGa (EVs 2.0E11 EVs/mL), 24 h)?
**A.** The IFN-β was 318 pg/mL.

**Q.** And the IL-6 (THP1 macrophages; 2.5E+10 EVs/mL, STINGa 1 μg/ml)?
**A.** The IL-6 was 25 pg/mL.

**Q.** And the IL-6 (THP1 macrophages; 5.0E10 EVs/mL, STINGa 2 μg/ml)?
**A.** Its IL-6 is 38 pg/mL.

**Q.** And the “IL-1b release” value (THP1 macrophages; 8, 2 or 1 μg/mL, 6 h and 24 h)?
**A.** Its value is “did not induce the release of IL-1b”.

**Q.** What about the IL-6 (THP1 macrophages; 24 h, 2.0E11 EVs/mL, STINGa 8 μg/ml) of the same compound?
**A.** Its IL-6 is 453 pg/mL.

**Q.** What about the “red fluorescence (uptake)” value (THP1-derived macrophages) of the same compound?
**A.** Its value is “neither free STINGa+pHrodo nor pHrodo alone produced appreciable fluorescence”.

**Q.** And the “luciferase activity (IRF pathway activation)” value (STING)?
**A.** The value was “a clear dose response effect was observed”.
